Assay results reported in patent US6774133B2, “Substituted spiroheterocyclic 1H-3-aryl-pyrrolidine-2,4-dione derivatives, processes for their preparation, and their use as pesticides” (Bayer Aktiengesellschaft, priority 1993, dated 2004).

Test system: green peach apid (Myzus persicae)
Experiment: Myzus test (cabbage leaves dipped)
Type: in vivo
Settings: after 6 days; active compound concentration 0.1%
Protocol: Solvent: 7 parts by weight of dimethylformamide
Emulsifier: 1 part by weight of alkylaryl polyglycol ether
To produce a suitable preparation of active compound, 1 part by weight of active compound is mixed with the stated amount of solvent and the stated amount of emulsifier, and the concentrate is diluted with water to the desired concentration.
Cabbage leaves (Brassica oleracea) which are severely infested with the green peach apid (Myzus persicae) are treated by being dipped into the preparation of active compound of the desired concentration.
After the specified periods of time, the destruction in % is determined. 100% means that all the aphids have been killed; 0% means that none of the aphids have been killed.

Cc1cc(C)c(C2=C(O)C3(CCCCC3)NC2=O)c(C)c1 [(A)]
destruction rate: no destruction

CC(C)C(=O)OC1=C(c2ccc(Cl)cc2Cl)C(=O)NC12CCCCC2 [(B)]
destruction rate: 20%
